Assay results as given in patent US20260256870A1, “SKIN COMPOSITION” (Eaderm Co., Ltd., priority 2019, published 2026).
“Also recorded” adds a separate entry of the source.

Legend:
[1] = tested on: SDS-induced skin roughness, medial forearm; test: Human skin roughness induced by 10% SDS (Example 18); format: in vivo
Method: Two subjects were administered with substances that promote the self-renewal ability of epidermal stem cells (apocynin, ebselen, and celecoxib) using a test of skin roughness induced by 10% sodium lauryl sulfate (SDS) solution (a test that serves as a standard for chemical-induced skin damage in humans), and the effect of the skin roughness-preventing or -ameliorating agent in improving skin roughness was evaluated. Six 1.5-cm square areas were placed on the subject's medial forearm, and each was subjected to the treatments below. • SDS non-treated (70% ethanol treatment) group • SDS treatment+solvent (50% ethanol/PBS) application group. • SDS treatment+apocynin (200 μM) solution application group • SDS treatment+ebselen (0.25%) solution application group. • SDS treatment+celecoxib (2%) solution application group A cotton ball permeated with 500 μL of 10% SDS solution (dissolved in 70% ethanol) was applied to the test area for 30 minutes each on day 0 and day 1. Apocynin was applied on day 0 before SDS treatment, applied after treatment, and then applied to the test area once daily until day 9. The TEWL at each test area was measured before and after SDS treatment, and daily from day 1 to day 7. For each area, the TEWL value before SDS treatment was subtracted from the TEWL value on the measurement day, and this value was defined as “ΔTEWL”, and this value was used for evaluation. The test area was photographed with a digital camera and with PRIMOS-CR (Canfield Scientific, Inc., USA, Integral Corporation), a high-resolution three-dimensional image analyzer. For the PRIMOS images, the Primos OMC3_22 software was used to measure the degree of skin roughness in terms of “Ry (maximum height)” and “Rz (ten-point average roughness)”, which are parameters representing surface roughness in the height direction. For each site, the value obtained by subtracting the Rz or Ry value of the SDS non-treated control from the Rz or Ry value on the measurement day was defined as “ΔRz” and “ΔRy”, and these values were used for evaluation.

[2] = tested on: upper cervical-dorsal skin of aged mice; test: Irritant skin disorder (dry eczema and alopecia) model induced by 100% ethanol in aged mice; format: in vivo; conditions: continuously applied, aged mice (FIG. 20)
Description: In the irritant skin disorder (dry eczema and alopecia) model induced by a high concentration of ethanol (100%) in the upper cervical-dorsal skin of aged mice, a substance (apocynin) that promotes the cell competitive ability of epidermal stem cells was continuously applied.

UVB-irradiated back skin = test: Barrier function after UVB irradiation (Example 12); format: in vivo, Hairless mice HOS: HR-1
Method: Hairless mice HOS: HR-1 females (7 weeks old) were acclimatized to the experimental environment and then grouped into the 6 groups below, so that the body weight values were nearly uniform. • No ultraviolet irradiation group (n=2) • Ultraviolet (UVB) irradiation+solvent application group (n=4). • Ultraviolet (UVB) irradiation+200 nM apocynin application group (n=4). • Ultraviolet (UVB) irradiation+200 μM apocynin application group (n=4). • Ultraviolet (UVB) irradiation+2 μM Y-27632 application group (n=4). • Ultraviolet (UVB) irradiation+20 μM Y-27632 application group (n=4) In the above solution application group, aqueous solutions of each preparation were applied to hairless mice on their back once a day for five days, starting from the day before ultraviolet irradiation. UVB irradiation was carried out using a Yayoi ultraviolet irradiation system (Y-UV-Lab-K-D5 lamp type) at an intensity of 150 mJ/cm^2 once a day. The stratum corneum water content and TEWL of the irradiated area were measured for each group of mice on the fourth day after the start of ultraviolet irradiation. The measurements were performed using Corneometer CM825 and Tewameter TN300 (Courage+Khazaka, Integral Corporation, Germany) at specific sites on the back of the mice.

[3] = tested on: SDS-induced skin roughness; test: Skin roughness induced by 10% SDS in hairless mice (Examples 16, 17); format: in vivo, hairless mice (HOS: HR-1)
Description: Using a skin irritation model induced by a 10% sodium lauryl sulfate (SDS) solution (a test that serves as a standard for chemical-induced skin damage), the present inventors administered a substance that promotes the competitive self-renewal ability of epidermal stem cells (apocynin) and evaluated the effect of the skin roughness-preventing or -ameliorating agent in improving skin roughness. After acclimation of hairless mice (HOS: HR-1) to the experimental environment, the mice were divided into the three groups below, so that the body weight values were nearly uniform. • SDS non-treated group (n=2) • SDS treatment+solvent application group (n=4) • SDS treatment+200 μM apocynin application group (n=4) On the back of hairless mice, a cotton ball soaked in 500 μL of 10% SDS solution (dissolved in 70% ethanol) was applied for 30 min on days 1, 2, 3, and 4. Apocynin was applied to the back every day from the day before the experiment until day 4. For each group of mice on the third day after the start of the experiment, TEWL was measured at specific sites on the back (two sites on the left side and right side symmetrically from the center of the spine) as described above. On the eighth day, the images were taken by PRIMOS-CR (Canfield Scientific, Inc., Integral Corporation), a high-resolution 3D image analysis system. […] Using a skin irritation model induced by 10% sodium lauryl sulfate (SDS) solution, the present inventors administered a substance that promotes the competitive self-renewal ability of epidermal stem cells (ebselen) and evaluated the effect of the skin roughness-preventing or -ameliorating agent in improving skin roughness. […] For each group of mice on the eighth day after the start of the experiment, TEWL was measured at specific sites on the back (two sites on the left side and right side symmetrically from the center of the spine) as described above. […]

[4] = apocynin 200 μM, ebselen 0.25%, celecoxib 2%
[5] = eighth day, surface of the back, compared to the solvent-applied control group

In the case of `COc1cc(C(C)=O)ccc1O` [Apocynin], the “skin roughness (analysis of skin texture from high-resolution photographs)” value [1, 4] is reported as “significantly reduced”, the ΔRy [1, 4] is reported as “significantly decreased” and the ΔRz [1, 4] is reported as “significantly decreased”. For the same compound, the ΔTEWL [1, 4] was “significantly decreased”, the “pigmentation / healing of the affected area” value ([1]; day 16, apocynin 200 μM (FIG. 31)) was “healed; also recorded: almost no pigmentation” and the skin damage [2] was “significantly reduced”. For the same compound, the “TEWL after ultraviolet irradiation” value (UVB-irradiated back skin; 200 µM administration group, UVB, fourth day (FIG. 21)) was “significantly lower”, the “water content of the stratum corneum after ultraviolet irradiation” value (UVB-irradiated back skin; 200 μM applied, UVB 150 mJ/cm^2, fourth day (FIG. 21)) was “significantly higher” and the “TEWL on the back” value ([3]; 200 μM apocynin, third day, compared to the solvent-applied control group (FIG. 28)) was “significantly lower”. For the same compound, the “Ra (arithmetic mean roughness)” value [3, 5] was “significantly reduced” and the “Rz (ten-point average roughness)” value [3, 5] was “significantly reduced”.
